system: MDA-MB-231 cells; experiment: Extracellular lactate production inhibition after 4 h, MDA-MB-231; details: Homo sapiens, MDA-MB-231

| Structure (SMILES) | IC50 |
| --- | --- |
| O=C(O)c1ccc(C#Cc2ccccc2NS(=O)(=O)c2cccc3ncccc23)cc1 [Compound 35, 4-{2-[2-(quinoline-5-sulfonamido)phenyl]ethynyl}benzoic acid] | 1000 to 100000 nM |
| CCN(c1ccccc1C#Cc1ccc(C(=O)O)cc1)S(=O)(=O)c1ccc2ccccc2c1 [Compound 36, 4-{2-[2-(N-ethylnaphthalene-2-sulfonamido)phenyl]ethynyl}benzoic acid] | 1000 to 100000 nM |
| COc1ccc(S(=O)(=O)Nc2ccc(F)cc2C#Cc2ccc(C(=O)O)nc2)c2ccccc12 [Compound 37, 5-{2-[5-fluoro-2-(4-methoxynaphthalene-1-sulfonamido)phenyl]ethynyl}pyridine-2-carboxylic acid] | 100 to 1000 nM |
| O=C(O)c1ccc(C#Cc2ccccc2NS(=O)(=O)c2cnc3ccccc3c2)cc1 [Compound 40, 4-{2-[2-(quinoline-3-sulfonamido)phenyl]ethynyl}benzoic acid] | 1000 to 100000 nM |
| Cc1ccc(C#Cc2ccc(C(=O)O)cc2)c(NS(=O)(=O)c2ccc3ccccc3c2)n1 [Compound 41, 4-{2-[6-methyl-2-(naphthalene-2-sulfonamido)pyridin-3-yl]ethynyl}benzoic acid] | 100 to 1000 nM |
| COc1ccc(S(=O)(=O)Nc2ccccc2C#Cc2ccc(C(=O)O)nc2)c(C)c1C [Compound 42, 5-{2-[2-(4-methoxy-2,3-dimethylbenzenesulfonamido)phenyl]-ethynyl}pyridine-2-carboxylic acid] | 100 to 1000 nM |
| O=C(O)c1ccc(C#Cc2ccccc2NS(=O)(=O)c2ccc3cc(Cl)ccc3c2)cc1 [Compound 43, 4-{2-[2-(6-chloronaphthalene-2-sulfonamido)phenyl]ethynyl}benzoic acid] | 100 to 1000 nM |
| COc1ccc(S(=O)(=O)Nc2ccccc2C#Cc2ccc(C(=O)O)c(F)c2)c2ccccc12 [Compound 45, 2-fluoro-4-{2-[2-(4-methoxynaphthalene-1-sulfonamido)phenyl]ethynyl}benzoic acid] | 100 to 1000 nM |
| Cc1ccc(C#Cc2ccc(C(=O)O)cc2)c(NS(=O)(=O)c2ccc3ccccc3c2)c1 [Compound 46, 4-{2-[4-methyl-2-(naphthalene-2-sulfonamido)phenyl]ethynyl}benzoic acid] | 100 to 1000 nM |
| COc1ccc(S(=O)(=O)Nc2ccccc2C#Cc2ccc(C(=O)O)cc2)c(C)c1 [Compound 47, 4-{2-[2-(4-methoxy-2-methylbenzenesulfonamido)phenyl]ethynyl} benzoic acid] | 100 to 1000 nM |
| COc1ncc(S(=O)(=O)Nc2ccccc2C#Cc2ccc(C(=O)O)cc2)cc1Br [Compound 48, 4-{2-[2-(5-bromo-6-methoxypyridine-3-sulfonamido)phenyl]ethynyl}benzoic acid] | 100 to 1000 nM |
| Cc1cc(C#Cc2ccccc2NS(=O)(=O)c2ccc3ccccc3c2)cnc1C(=O)O [Compound 49, 3-methyl-5-{2-[2-(naphthalene-2-sulfonamido)phenyl]ethynyl}pyridine-2-carboxylic acid] | 100 to 1000 nM |
| Cc1cc(C(=O)O)ncc1C#Cc1ccccc1NS(=O)(=O)c1ccc2ccccc2c1 [Compound 50, 4-methyl-5-{2-[2-(naphthalene-2-sulfonamido)phenyl]ethynyl}pyridine-2-carboxylic acid] | 1000 to 100000 nM |
| Cc1nc(C(=O)O)ccc1C#Cc1ccccc1NS(=O)(=O)c1ccc2ccccc2c1 [Compound 51, 6-methyl-5-{2-[2-(naphthalene-2-sulfonamido)phenyl]ethynyl}pyridine-2-carboxylic acid] | 1000 to 100000 nM |
| O=C(O)c1ccc(C#Cc2ccccc2NS(=O)(=O)c2cccc3cccnc23)cn1 [Compound 52, 5-{2-[2-(quinoline-8-sulfonamido)phenyl]ethynyl}pyridine-2-carboxylic acid] | 100 to 1000 nM |
| Cc1cncc2c(S(=O)(=O)Nc3ccccc3C#Cc3ccc(C(=O)O)cc3)cccc12 [Compound 54, 4-{2-[2-(4-methylisoquinoline-8-sulfonamido)phenyl]ethynyl}benzoic acid] | 1000 to 100000 nM |
| O=C(O)c1ccc(C#Cc2ccccc2NS(=O)(=O)c2ccc3ncccc3c2)cc1 [Compound 55, 4-{2-[2-(quinoline-6-sulfonamido)phenyl]ethynyl}benzoic acid] | 1000 to 100000 nM |
| COc1ccc(S(=O)(=O)Nc2ccccc2C#Cc2ccc(C(=O)O)cc2)cc1C [Compound 56, 4-{2-[2-(4-methoxy-3-methylbenzenesulfonamido)phenyl]-ethynyl}benzoic acid] | 100 to 1000 nM |
| CCOc1cc(C#Cc2ccccc2NS(=O)(=O)c2ccc3ccccc3c2)ccc1C(=O)O [Compound 57, 2-ethoxy-4-{2-[2-(naphthalene-2-sulfonamido)phenyl]ethynyl}benzoic acid] | 1000 to 100000 nM |
| CCOc1cc(C#Cc2ccccc2NS(=O)(=O)c2ccc(OC)c3ccccc23)ccc1C(=O)O [Compound 58, 2-ethoxy-4-{2-[2-(4-methoxynaphthalene-1-sulfonamido)phenyl]ethynyl}benzoic acid] | 100 to 1000 nM |
| Cc1cc(C#Cc2ccccc2NS(=O)(=O)c2cccc3cccnc23)cnc1C(=O)O [Compound 59, 3-methyl-5-{2-[2-(quinoline-8-sulfonamido)phenyl]ethynyl}pyridine-2-carboxylic acid] | 100 to 1000 nM |

| Structure (SMILES) | IC50 |
| --- | --- |
| Cc1nc(C(=O)O)ccc1C#Cc1ccccc1NS(=O)(=O)c1cccc2cccnc12 [Compound 60, 6-methyl-5-{2-[2-(quinoline-8-sulfonamido)phenyl]ethynyl}pyridine-2-carboxylic acid] | 1000 to 100000 nM |
| Cc1cc(C(=O)O)ncc1C#Cc1ccccc1NS(=O)(=O)c1cccc2cccnc12 [Compound 61, 4-methyl-5-{2-[2-(quinoline-8-sulfonamido)phenyl]ethynyl}pyridine-2-carboxylic acid] | 100 to 1000 nM |
| COc1cc(C#Cc2ccccc2NS(=O)(=O)c2cccc3ccccc23)ccc1C(=O)O [Compound 62, 2-methoxy-4-{2-[2-(naphthalene-1-sulfonamido)phenyl]ethynyl}benzoic acid] | 100 to 1000 nM |
| COc1ccc(S(=O)(=O)Nc2ccccc2C#Cc2cnc(C(=O)O)c(C)c2)c2ccccc12 [Compound 63, 5-{2-[2-(4-methoxynaphthalene-1-sulfonamido)phenyl]ethynyl}-3-methylpyridine-2-carboxylic acid] | 100 to 1000 nM |
| Cc1cccc(C#Cc2ccc(C(=O)O)cc2)c1NS(=O)(=O)c1ccc2ccccc2c1 [Compound 64, 4-{2-[3-methyl-2-(naphthalene-2-sulfonamido)phenyl]ethynyl}benzoic acid] | 1000 to 100000 nM |
| O=C(O)c1ncc(C#Cc2ccccc2NS(=O)(=O)c2ccc3ccccc3c2)cc1F [Compound 65, 3-fluoro-5-{2-[2-(naphthalene-2-sulfonamido)phenyl]ethynyl}pyridine-2-carboxylic acid] | 1000 to 100000 nM |
| O=C(O)c1ccc(C#Cc2ccccc2NS(=O)(=O)c2cccc3nccnc23)cc1 [Compound 66, 4-{2-[2-(quinoxaline-5-sulfonamido)phenyl]ethynyl}benzoic acid] | 1000 to 100000 nM |
| COc1ccc(S(=O)(=O)Nc2ccccc2C#Cc2ccc(C(=O)O)c(OC)c2)c(C)c1 [Compound 67, 2-methoxy-4-{2-[2-(4-methoxy-2-methylbenzenesulfonamido)phenyl]-ethynyl}benzoic acid] | 100 to 1000 nM |
| O=C(O)c1ccc(C#Cc2cc(F)ccc2NS(=O)(=O)c2cccc3ccccc23)cc1 [Compound 68, 4-{2-[5-fluoro-2-(naphthalene-1-sulfonamido)phenyl]ethynyl}benzoic acid] | 100 to 1000 nM |
| O=C(O)c1ccc(C#Cc2ccccc2NS(=O)(=O)c2cccc3ccccc23)cc1F [Compound 69, 2-fluoro-4-{2-[2-(naphthalene-1-sulfonamido)phenyl]ethynyl}benzoic acid] | 100 to 1000 nM |
| O=C(O)c1ccc(C#Cc2ccccc2NS(=O)(=O)c2cccc3ccccc23)cn1 [Compound 70, 5-{2-[2-(naphthalene-1-sulfonamido)phenyl]ethynyl}pyridine-2-carboxylic acid] | 100 to 1000 nM |
| COc1cc(C#Cc2ccccc2NS(=O)(=O)c2cccc3ccccc23)cnc1C(=O)O [Compound 71, 3-methoxy-5-{2-[2-(naphthalene-1-sulfonamido)phenyl]ethynyl}pyridine-2-carboxylic acid] | 1000 to 100000 nM |
| COc1ccc(S(=O)(=O)Nc2ccccc2C#Cc2ccc(C(=O)O)nc2)c(C)c1 [Compound 72, 5-{2-[2-(4-methoxy-2-methylbenzenesulfonamido)phenyl]-ethynyl}pyridine-2-carboxylic acid] | 1000 to 100000 nM |
| O=C(O)c1ccc(C#Cc2ccccc2NS(=O)(=O)c2cc3ccccc3o2)cc1 [Compound 73, 4-{2-[2-(1-benzofuran-2-sulfonamido)phenyl]ethynyl}benzoic acid] | 100 to 1000 nM |
| Cc1cc(C#Cc2ccccc2NS(=O)(=O)c2cccc3ccccc23)cnc1C(=O)O [Compound 74, 3-methyl-5-{2-[2-(naphthalene-1-sulfonamido)phenyl]ethynyl}pyridine-2-carboxylic acid] | 100 to 1000 nM |
| Cc1ccc(S(=O)(=O)Nc2ccccc2C#Cc2ccc(C(=O)O)cc2)c2ccccc12 [Compound 75, 4-{2-[2-(4-methylnaphthalene-1-sulfonamido)phenyl]ethynyl}benzoic acid] | 100 to 1000 nM |
| O=C(O)c1ccc(C#Cc2ccccc2NS(=O)(=O)C2CS(=O)(=O)c3ccccc32)cc1 (stereo not drawn) [Compound 76, 4-{2-[2-(1,1-dioxo-2,3-dihydro-1lambda6-benzo[b]thiophene-3-sulfonamido)phenyl]ethynyl}benzoic acid] | 1000 to 100000 nM |
| O=C(O)c1ccc(C#Cc2ccccc2NS(=O)(=O)C2=Cc3ccccc3CC2)cc1 [Compound 78, 4-{2-[2-(3,4-dihydronaphthalene-2-sulfonamido)phenyl]ethynyl}benzoic acid] | 100 to 1000 nM |
| Cc1cc(C#Cc2ccccc2NS(=O)(=O)c2cccc3ccccc23)ccc1C(=O)O [Compound 80, 2-methyl-4-{2-[2-(naphthalene-1-sulfonamido)phenyl]ethynyl}benzoic acid] | 100 to 1000 nM |
| O=C(O)c1ccc(C#Cc2ccccc2NS(=O)(=O)C2=Cc3ccccc3CC2)cn1 [Compound 81, 5-{2-[2-(3,4-dihydronaphthalene-2-sulfonamido)phenyl]ethynyl}pyridine-2-carboxylic acid] | 100 to 1000 nM |
| COc1cnc2cc(S(=O)(=O)Nc3ccccc3C#Cc3ccc(C(=O)O)cc3)ccc2n1 [Compound 82, 4-{2-[2-(2-methoxyquinoxaline-6-sulfonamido)phenyl]ethynyl}benzoic acid] | 1000 to 100000 nM |

From patent publication US12351570B2 (MERCK PATENT GMBH, priority 2018, dated 2025)
